Results as given in ChEMBL document CHEMBL4402605, “A Chemical Switch for Transforming a Purine Agonist for Toll-like Receptor 7 to a Clinically Relevant Antagonist” (J Med Chem, 2020).
The source made the active and inactive calls. The rule behind the calls is not given here.

What was measured:
[1] = target: T1, Toll-like receptor 8 (Homo sapiens) (UniProt Q9NR97); assay: Antagonist activity at human TLR8 expressed in HEK-Blue cells assessed as inhibition of CL075-induced NFkappaB activation by measuring reduction in SEAP level up to 50 uM after overnight incubation using qunati-blue reagent by SEAP reporter gene-based spectrophotometric method; type: cell-based
T1 sequence (whole entry): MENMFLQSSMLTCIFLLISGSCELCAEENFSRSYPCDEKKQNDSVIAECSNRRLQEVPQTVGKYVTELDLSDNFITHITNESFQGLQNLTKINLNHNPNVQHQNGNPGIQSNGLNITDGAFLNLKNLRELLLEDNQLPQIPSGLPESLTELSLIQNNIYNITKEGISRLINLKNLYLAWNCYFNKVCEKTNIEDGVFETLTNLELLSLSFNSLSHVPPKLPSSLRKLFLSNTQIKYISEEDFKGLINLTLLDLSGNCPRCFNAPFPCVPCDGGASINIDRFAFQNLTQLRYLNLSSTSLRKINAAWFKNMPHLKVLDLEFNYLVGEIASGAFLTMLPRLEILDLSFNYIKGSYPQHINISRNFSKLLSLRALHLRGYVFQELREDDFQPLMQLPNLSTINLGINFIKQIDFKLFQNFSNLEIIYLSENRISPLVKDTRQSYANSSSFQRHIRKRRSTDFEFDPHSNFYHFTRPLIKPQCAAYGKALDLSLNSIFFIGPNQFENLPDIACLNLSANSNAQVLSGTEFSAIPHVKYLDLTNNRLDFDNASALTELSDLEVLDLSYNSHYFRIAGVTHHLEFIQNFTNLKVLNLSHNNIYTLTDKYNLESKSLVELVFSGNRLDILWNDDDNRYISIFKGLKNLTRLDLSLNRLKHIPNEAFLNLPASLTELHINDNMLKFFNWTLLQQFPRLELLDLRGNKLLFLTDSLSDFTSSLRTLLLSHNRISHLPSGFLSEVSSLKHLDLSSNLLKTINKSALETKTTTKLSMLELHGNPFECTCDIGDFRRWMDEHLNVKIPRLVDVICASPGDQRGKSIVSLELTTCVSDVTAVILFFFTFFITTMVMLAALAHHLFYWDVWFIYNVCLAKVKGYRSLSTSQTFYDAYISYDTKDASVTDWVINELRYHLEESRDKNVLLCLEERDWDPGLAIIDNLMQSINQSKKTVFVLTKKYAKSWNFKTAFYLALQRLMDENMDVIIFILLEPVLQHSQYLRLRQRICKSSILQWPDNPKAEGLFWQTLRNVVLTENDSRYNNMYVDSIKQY

Toll-like receptor 7 [2] = target: T2, Toll-like receptor 7 (Homo sapiens, UniProt Q9NYK1)
T2 sequence (Q9NYK1 whole entry): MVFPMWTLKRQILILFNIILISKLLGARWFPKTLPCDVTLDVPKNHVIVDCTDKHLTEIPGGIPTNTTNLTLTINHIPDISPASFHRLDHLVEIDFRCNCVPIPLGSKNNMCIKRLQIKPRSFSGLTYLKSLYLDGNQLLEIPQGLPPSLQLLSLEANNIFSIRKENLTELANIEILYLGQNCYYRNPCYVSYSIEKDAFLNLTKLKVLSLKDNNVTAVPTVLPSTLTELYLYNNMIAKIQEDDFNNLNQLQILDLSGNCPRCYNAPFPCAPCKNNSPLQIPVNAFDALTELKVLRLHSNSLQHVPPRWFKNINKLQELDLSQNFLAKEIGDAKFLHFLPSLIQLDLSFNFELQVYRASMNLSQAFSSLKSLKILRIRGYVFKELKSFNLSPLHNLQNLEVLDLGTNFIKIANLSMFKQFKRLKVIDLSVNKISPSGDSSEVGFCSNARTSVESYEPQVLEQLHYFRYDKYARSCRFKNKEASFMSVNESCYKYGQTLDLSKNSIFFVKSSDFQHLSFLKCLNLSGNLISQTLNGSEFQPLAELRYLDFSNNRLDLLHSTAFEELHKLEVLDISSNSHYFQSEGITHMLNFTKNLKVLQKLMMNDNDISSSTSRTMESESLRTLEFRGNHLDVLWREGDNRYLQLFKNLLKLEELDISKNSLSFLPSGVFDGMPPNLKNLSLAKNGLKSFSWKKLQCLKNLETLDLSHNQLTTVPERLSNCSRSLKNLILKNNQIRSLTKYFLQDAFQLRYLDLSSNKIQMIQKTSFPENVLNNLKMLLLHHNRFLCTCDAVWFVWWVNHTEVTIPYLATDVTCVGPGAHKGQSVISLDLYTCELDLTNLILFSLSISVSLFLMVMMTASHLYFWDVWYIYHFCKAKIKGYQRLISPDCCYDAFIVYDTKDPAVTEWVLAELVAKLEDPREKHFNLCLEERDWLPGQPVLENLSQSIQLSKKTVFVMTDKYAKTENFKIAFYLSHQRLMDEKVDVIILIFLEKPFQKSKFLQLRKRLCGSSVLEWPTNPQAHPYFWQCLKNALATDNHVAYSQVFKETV
Description: Antagonist activity at human TLR7 expressed in HEK-Blue cells assessed as inhibition of CL264-induced NFkappaB activation by measuring reduction in SEAP level after overnight incubation using qunati-blue reagent by SEAP reporter gene-based spectrophotometric method

Toll-like receptor 7 [3] = target: T2, Toll-like receptor 7; assay: Agonist activity at human TLR7 expressed in HEK-Blue cells assessed as induction of NFkappaB activation by measuring increase in SEAP level after overnight incubation using qunati-blue reagent by SEAP reporter gene-based spectrophotometric method; type: cell-based

Row | inhibition [1] | IC50 (Toll-like receptor 7 [2]) | EC50 (Toll-like receptor 7 [3]) | SMILES
1 | inactive | – | – | CCN1CCN(c2ncnc3c2ncn3CCCN2CCNCC2)CC1
2 | inactive | 15.8 µM | – | CCN1CCN(c2ncnc3c2ncn3CCCN2CCCCC2)CC1
3 | inactive | 48.3 µM | – | CCN1CCN(c2ncnc3c2ncn3CCCN2CCCC2)CC1
4 | – | 8.6 µM | – | CCN(CCO)CCCC(C)Nc1ccnc2cc(Cl)ccc12 (configuration not stated) [HYDROXYCHLOROQUINE]
5 | inactive | 25 µM | – | CCN1CCN(CCCn2cnc3c(N4CCOCC4)ncnc32)CC1
6 | inactive | 23.9 µM | – | CCN1CCN(CCCn2cnc3c(N4CCCCC4)ncnc32)CC1
7 | inactive | 39.3 µM | – | CCN1CCN(CCCn2cnc3c(N4CCNCC4)ncnc32)CC1
8 | inactive | 43.1 µM | – | CCN1CCN(CCCn2c(O)nc3c(N)ncnc32)CC1
9 | – | – | 2.6 µM | CCCCOc1nc(N)c2nc(O)n(CCCN3CCCCC3)c2n1
10 | inactive | 40 µM | – | CCN1CCN(c2ncnc3c2ncn3CCCN2CCOCC2)CC1
